Reference: patent publication US8748415B2 (priority 2011, dated 2014)

Test system: recombinant NL4-3 virus (Renilla luciferase in nef, Gag P373S)
Experiment: HIV cell culture assay (luciferase activity in MT-2 cells infected with NLRluc recombinant virus)
Type: cell-based
Conditions: NL43, MT-2 cells infected 4-5 days with NLRluc recombinant virus, class symbol
Description: HIV cell culture assay—MT-2 cells and 293T cells were obtained from the NIH AIDS Research and Reference Reagent Program. MT-2 cells were propagated in RPMI 1640 media supplemented with 10% heat inactivated fetal bovine serum, […]. The 293T cells were propagated in DMEM media supplemented with 10% heat inactivated fetal bovine serum (FBS), 100 units/ml penicillin G and 100 μg/ml streptomycin. The proviral DNA clone of NL4-3 was obtained from the NIH AIDS Research and Reference Reagent Program. A recombinant NL4-3 virus, in which a section of the nef gene from NL4-3 was replaced with the Renilla luciferase gene, was used as a reference virus. In addition, residue Gag P373 was converted to P373S. Briefly, the recombinant virus was prepared by transfection of the altered proviral clone of NL4-3. Transfections were performed in 293T cells using LipofectAMINE PLUS from Invitrogen (Carlsbad, Calif.), according to manufacturer's instruction. The virus was titered in MT-2 cells using luciferase enzyme activity as a marker. Luciferase was quantitated using the Dual Luciferase kit from Promega (Madison, Wis.), with modifications to the manufacturer's protocol. The diluted Passive Lysis solution was pre-mixed with the re-suspended Luciferase Assay Reagent and the re-suspended Stop & Glo Substrate (2:1:1 ratio). Fifty (50) μL of the mixture was added to each aspirated well on assay plates and luciferase activity was measured immediately on a Wallac TriLux (Perkin-Elmer). Antiviral activities of inhibitors toward the recombinant virus were quantified by measuring luciferase activity in cells infected for 4-5 days with NLRluc recombinants in the presence serial dilutions of the inhibitor. Table 1 is the key for the data in Table 2.

For `C=C(C)[C@@H]1CC[C@]2(CNC(=O)OCCN3CCS(=O)(=O)CC3)CC[C@]3(C)[C@H](CC[C@@H]4[C@@]5(C)CC=C(c6ccc(C(=O)O)cc6)C(C)(C)[C@@H]5CC[C@]43C)[C@@H]12` [Example 165, 4-((1R,3aS,5aR,5bR,7aR,11aS,11bR,13aR,13bR)-3a-((((2-(1,1-dioxido-4-thiomorpholinyl)ethoxy)carbonyl)amino)methyl)-1-isopropenyl-5a,5b,8,8,11a-pentamethyl-2,3,3a,4,5,5a,5b,6,7,7a,8,11,11a,11b,12,13,13a,13b-octadecahydro-1H-cyclopenta[a]chrysen-9-yl)benzoic acid], the EC50 was under 100 nM.
Molecule `C=C(C)[C@@H]1CC[C@]2(CNC(=O)CCN3CCS(=O)(=O)CC3)CC[C@]3(C)[C@H](CC[C@@H]4[C@@]5(C)CC=C(c6ccc(C(=O)O)cc6)C(C)(C)[C@@H]5CC[C@]43C)[C@@H]12` [Example 146, 4-((1R,3aS,5aR,5bR,7aR,11aS,11bR,13aR,13bR)-3a-(((3-(1,1-dioxido-4-thiomorpholinyl)propanoyl)amino)methyl)-1-isopropenyl-5a,5b,8,8,11a-pentamethyl-2,3,3a,4,5,5a,5b,6,7,7a,8,11,11a,11b,12,13,13a,13b-octadecahydro-1H-cyclopenta[a]chrysen-9-yl)benzoic acid] has an EC50 of under 100 nM.
Work on `C=C(C)[C@@H]1CC[C@]2(CNC(=O)C(F)(F)C(=O)NCCN(C)C)CC[C@]3(C)[C@H](CC[C@@H]4[C@@]5(C)CC=C(c6ccc(C(=O)O)cc6)C(C)(C)[C@@H]5CC[C@]43C)[C@@H]12` [Example 152, 4-((1R,3aS,5aR,5bR,7aR,11aS,11bR,13aR,13bR)-3a-((3-(2-(dimethylamino)ethylamino)-2,2-difluoro-3-oxopropanamido)methyl)-5a,5b,8,8,11a-pentamethyl-1-(prop-1-en-2-yl)-2,3,3a,4,5,5a,5b,6,7,7a,8,11,11a,11b,12,13,13a,13b-octadecahydro-1H-cyclopenta[a]chrysen-9-yl)benzoic acid] yielded an EC50 of under 100 nM.
Work on `C=C(C)[C@@H]1CC[C@]2(CNCCO)CC[C@]3(C)[C@H](CC[C@@H]4[C@@]5(C)CC=C(c6ccc(C(=O)O)cc6)C(C)(C)[C@@H]5CC[C@]43C)[C@@H]12` [Example 178, 4-((1R,3aS,5aR,5bR,7aR,11aS,11bR,13aR,13bR)-3a-((2-hydroxyethylamino)methyl)-5a,5b,8,8,11a-pentamethyl-1-(prop-1-en-2-yl)-2,3,3a,4,5,5a,5b,6,7,7a,8,11,11a,11b,12,13,13a,13b-octadecahydro-1H-cyclopenta[a]chrysen-9-yl)benzoic acid] yielded an EC50 of under 100 nM.
For `C=C(C)[C@@H]1CC[C@]2(CNCc3ccoc3)CC[C@]3(C)[C@H](CC[C@@H]4[C@@]5(C)CC=C(c6ccc(C(=O)O)cc6)C(C)(C)[C@@H]5CC[C@]43C)[C@@H]12` [Example 53, 4-((1R,3aS,5aR,5bR,7aR,11aS,11bR,13aR,13bR)-3a-((furan-3-ylmethylamino)methyl)-5a,5b,8,8,11a-pentamethyl-1-(prop-1-en-2-yl)-2,3,3a,4,5,5a,5b,6,7,7a,8,11,11a,11b,12,13,13a,13b-octadecahydro-1H-cyclopenta[a]chrysen-9-yl)benzoic acid], the EC50 was under 100 nM.
Work on `C=C(C)[C@@H]1CC[C@]2(CNCCN(CCO)CCO)CC[C@]3(C)[C@H](CC[C@@H]4[C@@]5(C)CC=C(c6ccc(C(=O)O)cc6)C(C)(C)[C@@H]5CC[C@]43C)[C@@H]12` [Example 24, 4-((1R,3aS,5aR,5bR,7aR,11aS,11bR,13aR,13bR)-3a-((2-(bis(2-hydroxyethyl)amino)ethylamino)methyl)-5a,5b,8,8,11a-pentamethyl-1-(prop-1-en-2-yl)-2,3,3a,4,5,5a,5b,6,7,7a,8,11,11a,11b,12,13,13a,13b-octadecahydro-1H-cyclopenta[a]chrysen-9-yl)benzoic acid] yielded an EC50 of under 100 nM.
`C=C(C)[C@@H]1CC[C@]2(CNCCC(=O)N(C)C)CC[C@]3(C)[C@H](CC[C@@H]4[C@@]5(C)CC=C(c6ccc(C(=O)O)cc6)C(C)(C)[C@@H]5CC[C@]43C)[C@@H]12` [Example 75, 4-((1R,3aS,5aR,5bR,7aR,11aS,11bR,13aR,13bR)-3a-((3-(dimethylamino)-3-oxopropylamino)methyl)-5a,5b,8,8,11a-pentamethyl-1-(prop-1-en-2-yl)-2,3,3a,4,5,5a,5b,6,7,7a,8,11,11a,11b,12,13,13a,13b-octadecahydro-1H-cyclopenta[a]chrysen-9-yl)benzoic acid] gave an EC50 of under 100 nM.
`C=C(C)[C@@H]1CC[C@]2(CNCCC(=O)O)CC[C@]3(C)[C@H](CC[C@@H]4[C@@]5(C)CC=C(c6ccc(C(=O)O)cc6)C(C)(C)[C@@H]5CC[C@]43C)[C@@H]12` [Example 64, 4-((1R,3aS,5aR,5bR,7aR,11aS,11bR,13aR,13bR)-3a-((2-carboxymethylamino)methyl)-5a,5b,8,8,11a-pentamethyl-1-(prop-1-en-2-yl)-2,3,3a,4,5,5a,5b,6,7,7a,8,11,11a,11b,12,13,13a,13b-octadecahydro-1H-cyclopenta[a]chrysen-9-yl)benzoic acid] was tested, and the EC50 was under 100 nM.
For `C=C(C)[C@@H]1CC[C@]2(CNCCCN3CCCC3=O)CC[C@]3(C)[C@H](CC[C@@H]4[C@@]5(C)CC=C(c6ccc(C(=O)O)c(F)c6)C(C)(C)[C@@H]5CC[C@]43C)[C@@H]12` [Example 88, 2-fluoro-4-((1R,3aS,5aR,5bR,7aR,11aS,11bR,13aR,13bR)-5a,5b,8,8,11a-pentamethyl-3a-((3-(2-oxopyrrolidin-1-yl)propylamino)methyl)-1-(prop-1-en-2-yl)-2,3,3a,4,5,5a,5b,6,7,7a,8,11,11a,11b,12,13,13a,13b-octadecahydro-1H-cyclopenta[a]chrysen-9-yl)benzoic acid], the EC50 was under 100 nM.
Work on `C=C(C)[C@@H]1CC[C@]2(CNCC(=O)O)CC[C@]3(C)[C@H](CC[C@@H]4[C@@]5(C)CC=C(c6ccc(C(=O)O)cc6)C(C)(C)[C@@H]5CC[C@]43C)[C@@H]12` [Example 31, 4-((1R,3aS,5aR,5bR,7aR,11aS,11bR,13aR,13bR)-3a-((carboxymethylamino)methyl)-5a,5b,8,8,11a-pentamethyl-1-(prop-1-en-2-yl)-2,3,3a,4,5,5a,5b,6,7,7a,8,11,11a,11b,12,13,13a,13b-octadecahydro-1H-cyclopenta[a]chrysen-9-yl)benzoic acid] yielded an EC50 of under 100 nM.
Work on `C=C(C)[C@@H]1CC[C@]2(CNC(=O)[C@H]3CCCN3)CC[C@]3(C)[C@H](CC[C@@H]4[C@@]5(C)CC=C(c6ccc(C(=O)O)cc6)C(C)(C)[C@@H]5CC[C@]43C)[C@@H]12` [Example 137, 4-((1R,3aS,5aR,5bR,7aR,11aS,11bR,13aR,13bR)-5a,5b,8,8,11a-pentamethyl-1-(prop-1-en-2-yl)-3a-(((R)-pyrrolidine-2-carboxamido)methyl)-2,3,3a,4,5,5a,5b,6,7,7a,8,11,11a,11b,12,13,13a,13b-octadecahydro-1H-cyclopenta[a]chrysen-9-yl)benzoic acid] yielded an EC50 of under 100 nM.
`C=C(C)[C@@H]1CC[C@]2(CNCCCN3CCN(C)CC3)CC[C@]3(C)[C@H](CC[C@@H]4[C@@]5(C)CC=C(c6ccc(C(=O)O)cc6)C(C)(C)[C@@H]5CC[C@]43C)[C@@H]12` [Example 56, 4-((1R,3aS,5aR,5bR,7aR,11aS,11bR,13aR,13bR)-5a,5b,8,8,11a-pentamethyl-3a-((3-(4-methylpiperazin-1-yl)propylamino)methyl)-1-(prop-1-en-2-yl)-2,3,3a,4,5,5a,5b,6,7,7a,8,11,11a,11b,12,13,13a,13b-octadecahydro-1H-cyclopenta[a]chrysen-9-yl)benzoic acid] was tested, and the EC50 was under 100 nM.
Work on `C=C(C)[C@@H]1CC[C@]2(CNCCN(C)CCS(C)(=O)=O)CC[C@]3(C)[C@H](CC[C@@H]4[C@@]5(C)CC=C(c6ccc(C(=O)O)cc6)C(C)(C)[C@@H]5CC[C@]43C)[C@@H]12` [Example 85, 4-((1R,3aS,5aR,5bR,7aR,11aS,11bR,13aR,13bR)-5a,5b,8,8,11a-pentamethyl-3a-((2-(methyl(2-(methylsulfonyl)ethyl)amino)ethylamino)methyl)-1-(prop-1-en-2-yl)-2,3,3a,4,5,5a,5b,6,7,7a,8,11,11a,11b,12,13,13a,13b-octadecahydro-1H-cyclopenta[a]chrysen-9-yl)benzoic acid] yielded an EC50 of under 100 nM.
`C=C(C)[C@@H]1CC[C@]2(CNCC(O)CN3CCCC3=O)CC[C@]3(C)[C@H](CC[C@@H]4[C@@]5(C)CC=C(c6ccc(C(=O)O)cc6)C(C)(C)[C@@H]5CC[C@]43C)[C@@H]12` (stereo partly drawn) [Example 81, 4-((1R,3aS,5aR,5bR,7aR,11aS,11bR,13aR,13bR)-3a-((2-hydroxy-3-(2-oxopyrrolidin-1-yl)propylamino)methyl)-5a,5b,8,8,11a-pentamethyl-1-(prop-1-en-2-yl)-2,3,3a,4,5,5a,5b,6,7,7a,8,11,11a,11b,12,13,13a,13b-octadecahydro-1H-cyclopenta[a]chrysen-9-yl)benzoic acid] gave an EC50 of under 100 nM.
